From patent publication US10259810B2, “N-sulfonylated pyrazolo[3,4-b]pyridin-6-carboxamides and method of use” (AbbVie S.à.r.l., priority 2015, dated 2019)
pEC50: −log10 of the molar value.

Tests used:
[1] = molecular target: T1, ΔF508-CFTR (Homo sapiens, UniProt P13569, DEL508-508); assay: CFTR cell surface levels using HRP-tagged ΔF508-CFTR expressing CFBE cells, intrinsic corrector capacity; type: cell-based; parameters: % Activation: concentration or dose not given beside the values; settings: HRP-tagged ΔF508-CFTR expressing CFBE41o- cells, compound alone (intrinsic corrector capacity), 20 hours at 33° C.; for pEC50: read-out: EC50
T1 construct: host or cells: CFBE41o-, doxycycline-inducible
Method in brief: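 Surface ΔF508-CFTR was measured as HRP chemiluminescence from an extracellular-loop-4 tag, expressed as percent activity between DMSO and a […] corrector control.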

[2] = molecular target: T1, ΔF508-CFTR; assay: CFTR cell surface levels using HRP-tagged ΔF508-CFTR expressing CFBE cells, in the presence of a co-corrector; type: cell-based; settings: HRP-tagged ΔF508-CFTR CFBE cells, in the presence of 3 μM co-corrector; for pEC50: read-out: EC50
Method in brief: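 Chemiluminescent read-out of surface HRP (15 min, dark) after PBS washes. Activity is normalized as 100×(sample−DMSO)/(3 μM co-corrector alone−DMSO).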

T1 sequence (P13569 with tags, fused parts or gaps DEL508-508): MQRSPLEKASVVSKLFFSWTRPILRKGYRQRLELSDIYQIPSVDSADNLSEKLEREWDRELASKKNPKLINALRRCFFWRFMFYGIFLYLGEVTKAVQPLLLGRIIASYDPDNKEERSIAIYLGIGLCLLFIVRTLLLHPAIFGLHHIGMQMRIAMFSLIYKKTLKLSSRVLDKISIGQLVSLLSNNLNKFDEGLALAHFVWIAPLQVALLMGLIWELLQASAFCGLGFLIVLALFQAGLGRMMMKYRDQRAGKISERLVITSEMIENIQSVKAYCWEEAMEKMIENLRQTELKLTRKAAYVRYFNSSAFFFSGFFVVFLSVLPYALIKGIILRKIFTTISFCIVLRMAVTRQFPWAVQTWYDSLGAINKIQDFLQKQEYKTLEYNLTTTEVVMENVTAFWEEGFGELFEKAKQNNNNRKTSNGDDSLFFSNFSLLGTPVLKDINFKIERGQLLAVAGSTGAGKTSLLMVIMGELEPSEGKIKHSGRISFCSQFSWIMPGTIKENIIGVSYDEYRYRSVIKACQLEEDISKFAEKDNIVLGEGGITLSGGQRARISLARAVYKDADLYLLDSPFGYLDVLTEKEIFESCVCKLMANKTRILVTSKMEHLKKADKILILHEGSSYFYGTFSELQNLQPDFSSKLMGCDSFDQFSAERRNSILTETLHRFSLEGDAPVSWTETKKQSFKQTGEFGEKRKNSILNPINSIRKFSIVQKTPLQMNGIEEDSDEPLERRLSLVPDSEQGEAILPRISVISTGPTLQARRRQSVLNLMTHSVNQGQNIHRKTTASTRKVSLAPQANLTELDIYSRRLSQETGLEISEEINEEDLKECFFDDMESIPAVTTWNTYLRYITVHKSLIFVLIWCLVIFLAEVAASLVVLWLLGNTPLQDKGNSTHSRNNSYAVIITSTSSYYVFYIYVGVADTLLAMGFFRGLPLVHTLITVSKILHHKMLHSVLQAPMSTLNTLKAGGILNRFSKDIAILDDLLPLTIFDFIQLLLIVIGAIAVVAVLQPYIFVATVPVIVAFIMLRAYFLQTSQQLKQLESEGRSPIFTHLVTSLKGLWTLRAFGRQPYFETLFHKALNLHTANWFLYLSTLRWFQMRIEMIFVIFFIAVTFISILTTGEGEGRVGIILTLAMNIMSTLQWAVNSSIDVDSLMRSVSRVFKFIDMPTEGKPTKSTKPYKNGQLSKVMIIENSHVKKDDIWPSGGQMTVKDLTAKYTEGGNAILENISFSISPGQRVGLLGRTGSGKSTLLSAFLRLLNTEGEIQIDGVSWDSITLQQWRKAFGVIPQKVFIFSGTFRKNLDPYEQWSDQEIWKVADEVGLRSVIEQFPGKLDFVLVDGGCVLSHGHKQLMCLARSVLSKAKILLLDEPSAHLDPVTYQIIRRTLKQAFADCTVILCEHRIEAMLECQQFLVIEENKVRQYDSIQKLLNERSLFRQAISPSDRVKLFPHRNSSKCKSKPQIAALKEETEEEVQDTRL

Structure (SMILES)	% Activation [1] [%]	pEC50 [1]	% Activation [2] [%]	pEC50 [2]
CN(C)S(=O)(=O)NC(=O)c1cc(CN2CCOCC2)c2c(C3CCC3)nn(-c3ccc(F)cc3)c2n1 [Compound 520, 3-cyclobutyl-N-(dimethylsulfamoyl)-1-(4-fluorophenyl)-4-[(morpholin-4-yl)methyl]-1H-pyrazolo[3,4-b]pyridine-6-carboxamide]	60	5.98	207.1	6.03
COCC1CCN(Cc2cc(C(=O)NS(=O)(=O)N(C)C)nc3c2c(C2CCC2)nn3-c2ccc(F)cc2)CC1 [Compound 521, 3-cyclobutyl-N-(dimethylsulfamoyl)-1-(4-fluorophenyl)-4-{[4-(methoxymethyl)piperidin-1-yl]methyl}-1H-pyrazolo[3,4-b]pyridine-6-carboxamide]	31.93		217.3	6.15
COC1CCN(C2CCN(c3cc(C(=O)NS(=O)(=O)N(C)C)nc4c3c(C3CCC3)nn4-c3ccc(F)cc3)CC2)C1 (centres unmarked) [Compound 524, 3-cyclobutyl-N-(dimethylsulfamoyl)-1-(4-fluorophenyl)-4-[4-(3-methoxypyrrolidin-1-yl)piperidin-1-yl]-1H-pyrazolo[3,4-b]pyridine-6-carboxamide]	209.35	6.28	398.75	6.51
CN(C1CCOCC1)C1CCN(c2cc(C(=O)NS(=O)(=O)N(C)C)nc3c2c(C2CCC2)nn3-c2ccc(F)cc2)CC1 [Compound 528, 3-cyclobutyl-N-(dimethylsulfamoyl)-1-(4-fluorophenyl)-4-{4-[methyl(oxan-4-yl)amino]piperidin-1-yl}-1H-pyrazolo[3,4-b]pyridine-6-carboxamide]	185.8	6.07	357.9	6.08
COCC1CCN(c2cc(C(=O)NS(=O)(=O)N(C)C)nc3c2c(C2CCC2)nn3-c2ccnc(C3CCOCC3)c2)CC1 [Compound 531, 3-cyclobutyl-N-(dimethylsulfamoyl)-4-[4-(methoxymethyl)piperidin-1-yl]-1-[2-(oxan-4-yl)pyridin-4-yl]-1H-pyrazolo[3,4-b]pyridine-6-carboxamide]	182.8	6.63	349.65	7.20
CN(C)S(=O)(=O)NC(=O)c1cc(N2CCC(N3CC4CC3CO4)CC2)c2c(C3CCC3)nn(-c3ccc(F)cc3)c2n1 (centres unmarked) [Compound 532, 3-cyclobutyl-N-(dimethylsulfamoyl)-1-(4-fluorophenyl)-4-[4-(2-oxa-5-azabicyclo[2.2.1]heptan-5-yl)piperidin-1-yl]-1H-pyrazolo[3,4-b]pyridine-6-carboxamide]	151.95	6.28	342.83	6.33
CN(C)S(=O)(=O)NC(=O)c1cc(N2CCC3(CC2)CC(N2CCOCC2)CO3)c2c(C3CCC3)nn(-c3ccc(F)cc3)c2n1 (centres unmarked) [Compound 533, 3-cyclobutyl-N-(dimethylsulfamoyl)-1-(4-fluorophenyl)-4-[3-(morpholin-4-yl)-1-oxa-8-azaspiro[4.5]decan-8-yl]-1H-pyrazolo[3,4-b]pyridine-6-carboxamide]	156.3	6.65	322.45	6.66
CC(C)Oc1nn(C2CCCCC2)c2nc(C(=O)NS(=O)(=O)N(C)C)cc(-c3ccc(N4CCN(C(C)C)CC4)cc3)c12 [Compound 534, 1-cyclohexyl-N-(dimethylsulfamoyl)-3-[(propan-2-yl)oxy]-4-{4-[4-(propan-2-yl)piperazin-1-yl]phenyl}-1H-pyrazolo[3,4-b]pyridine-6-carboxamide]	105	6.62	289.35	6.46
CN(C)S(=O)(=O)NC(=O)c1cc(-c2ccc(N3CCN(C4CC4)CC3)nc2)c2c(C3CCC3)nn(C3CCCCC3)c2n1 [Compound 536, 3-cyclobutyl-1-cyclohexyl-4-[6-(4-cyclopropylpiperazin-1-yl)pyridin-3-yl]-N-(dimethylsulfamoyl)-1H-pyrazolo[3,4-b]pyridine-6-carboxamide]	125.1	6.65	341.15	6.55
COC1CCN(S(=O)(=O)NC(=O)c2cc(N3CCC(N4CCOCC4)CC3)c3c(C4CCC4)nn(-c4ccc(F)cc4)c3n2)C1 (centres unmarked) [Compound 538, 3-cyclobutyl-1-(4-fluorophenyl)-N-(3-methoxypyrrolidine-1-sulfonyl)-4-[4-(morpholin-4-yl)piperidin-1-yl]-1H-pyrazolo[3,4-b]pyridine-6-carboxamide]	228.9	5.68	427.95	6.45
CN(C)S(=O)(=O)NC(=O)c1cc(-c2ccc(N3CCC(C#N)CC3)nc2)c2c(C3CCC3)nn(-c3ccccc3)c2n1 [Compound 539, 4-[6-(4-cyanopiperidin-1-yl)pyridin-3-yl]-3-cyclobutyl-N-(dimethylsulfamoyl)-1-phenyl-1H-pyrazolo[3,4-b]pyridine-6-carboxamide]	234.5	7.14	429.3	7.41
COCC1CCN(S(=O)(=O)NC(=O)c2cc(N3CCC(N4CCOCC4)CC3)c3c(C4CCC4)nn(-c4ccc(F)cc4)c3n2)CC1 [Compound 540, 3-cyclobutyl-1-(4-fluorophenyl)-N-[4-(methoxymethyl)piperidine-1-sulfonyl]-4-[4-(morpholin-4-yl)piperidin-1-yl]-1H-pyrazolo[3,4-b]pyridine-6-carboxamide]	248.8	6.91	443.3	6.99
CC(C)N1CCN(c2ccc(-c3cc(C(=O)NS(=O)(=O)N(C)C)nc4c3c(C3CCC3)nn4C3CCCCC3)cn2)CC1 [Compound 542, 3-cyclobutyl-1-cyclohexyl-N-(dimethylsulfamoyl)-4-{6-[4-(propan-2-yl)piperazin-1-yl]pyridin-3-yl}-1H-pyrazolo[3,4-b]pyridine-6-carboxamide]	153.2	6.57	320.3	6.67
CC(c1ccc(-c2cc(C(=O)NS(=O)(=O)N(C)C)nc3c2c(C2CCC2)nn3C2CCCCC2)cc1)N1CCOCC1 (centres unmarked) [Compound 543, 3-cyclobutyl-1-cyclohexyl-N-(dimethylsulfamoyl)-4-{4-[1-(morpholin-4-yl)ethyl]phenyl}-1H-pyrazolo[3,4-b]pyridine-6-carboxamide]	115.7	6.62	336.1	6.86
CC(C)Oc1nn(C2CCCCC2)c2nc(C(=O)NS(C)(=O)=O)cc(-c3ccc(C(=O)N4CCC(N(C)C)CC4)cc3)c12 [Compound 544, 1-cyclohexyl-4-{4-[4-(dimethylamino)piperidine-1-carbonyl]phenyl}-N-(methanesulfonyl)-3-[(propan-2-yl)oxy]-1H-pyrazolo[3,4-b]pyridine-6-carboxamide]	135.3	5.48	344.9	5.70
COCCS(=O)(=O)NC(=O)c1cc(-c2ccc(C(=O)N3CCC(N(C)C)CC3)cc2)c2c(OC(C)C)nn(C3CCCCC3)c2n1 [Compound 545, 1-cyclohexyl-4-{4-[4-(dimethylamino)piperidine-1-carbonyl]phenyl}-N-(2-methoxyethanesulfonyl)-3-[(propan-2-yl)oxy]-1H-pyrazolo[3,4-b]pyridine-6-carboxamide]	112.7	5.48	318.7	5.72
COC1CCN(C2CCN(c3cc(C(=O)NS(C)(=O)=O)nc4c3c(C3CCC3)nn4-c3ccc(F)cc3)CC2)CC1 [Compound 548, 3-cyclobutyl-1-(4-fluorophenyl)-N-(methanesulfonyl)-4-(4-methoxy[1,4'-bipiperidin]-1'-yl)-1H-pyrazolo[3,4-b]pyridine-6-carboxamide]	307.2	6.18	556.9	6.26
O=C(NS(=O)(=O)C1CC1)c1cc(N2CCC(N3CCN(C4CC4)CC3)CC2)c2c(C3CCC3)nn(-c3ccccc3)c2n1 [Compound 550, 3-cyclobutyl-N-(cyclopropanesulfonyl)-4-[4-(4-cyclopropylpiperazin-1-yl)piperidin-1-yl]-1-phenyl-1H-pyrazolo[3,4-b]pyridine-6-carboxamide]	347	6.44	605.45	6.76
